Test results reported in patent US20250057426A1, “COMPUTER-IMPLEMENTED METHODS AND ASSOCIATED SYSTEMS FOR DETECTING MALIGNANCY” (The Trustees of the University of Pennsylvania, priority 2021, published 2025).

Tested on: pulmonary lesions
Test: Tumor-to-background ratio (TBR) during OTL38-based intraoperative molecular imaging (IMI)-guided lung resection
Format: in vivo, patients
Details: OTL38 0.025 mg/kg infused up to 24 h prior to surgery
Experimental: Appropriate authorization was obtained from the University of Pennsylvania Perelman School of Medicine Institutional Review Board prior to data collection. Data was retrospectively analyzed from a prospectively collected database. Surgical procedures were performed by the surgeons at the Department of Thoracic Surgery at the Hospital of the University of Pennsylvania. A total of 279 patients were included in the study. All patients enrolled in the study presented with suspicious pulmonary nodules in conjunction with the recommendations from the Fleischner Society Guidelines for Pulmonary Nodules based on high-quality 1 mm slice thickness CT scanning. Based on institutional practice patterns, pre-operative tissue sampling and diagnosis was not mandatory. Selected patients underwent appropriate pre-operative clearance and metastatic disease work up prior to operative scheduling with video-assisted thoracoscopic surgical (VATS) lobectomy being the procedure of choice.
Analyzed patients underwent infusion of the study drug OTL38 (0.025 mg/kg) up to 24 h prior to surgery. OTL38 (C61H63N9Na4O17S4, MW: 1414.42) is a folate analog conjugated to the NIR dye, S0456. OTL38 excites at 774-776 nm and emits at 794-796 nm. […] The iridium system utilizes an excitation laser with a wavelength of 805 nm, with fluorescence detection based on a bandpass filter selective to light ranging from 825 to 850 nm. […]
Postoperatively, all the IMI images were uploaded to the deidentified secure database for analysis. Mean fluorescence intensity of the tumors was calculated from ImageJ (from National Institutes of Health) software with minimum 1000 pixels being included in the analysis. To minimize inter-observer bias, a protocol was established where the in situ and ex vivo TBRs were calculated by three blinded independent observers. Results were re-calculated by different observers if at least two blinded observer TBR measurements were not correlating (TBR values ±0.2 from each other). TBR results were then compared to final pathological diagnosis and analyzed for their correlation with in situ fluorescence. […]

`CC1(C)C(/C=C/C2=C(Oc3ccc(C[C@H](NC(=O)c4ccc(NCc5cnc6nc(N)[nH]c(=O)c6n5)cc4)C(=O)[O-])cc3)C(=C/C=C3\N(CCCCS(=O)(=O)[O-])c4ccc(S(=O)(=O)[O-])cc4C3(C)C)/CCC2)=[N+](CCCCS(=O)(=O)[O-])c2ccc(S(=O)(=O)[O-])cc21.[H+].[H+].[H+].[H+]` [OTL38] was tested, and the “In situ TBR, mean” value (entire cohort of 279 patients, Iridium NIR imaging, ImageJ) was 2.84, the “Ex vivo TBR bisected tumor, mean” value (entire cohort, bisected specimen, 0.025 mg/kg) was 4 and the “Ex vivo TBR (back table), mean” value (entire cohort, resected specimen) was 3.09.
